From patent US20260007684A1, “AMIDE DERIVATIVES FOR INHIBITING NLRP3 AND USES THEREOF” (Ventus Therapeutics U.S., Inc., priority 2023, published 2026)
pIC50: −log10 of the molar value.

Key:
human NLRP3 [1] = molecular target: T1, human NLRP3 (Homo sapiens (Human), UniProt Q96P20); assay: Human PBMC NLRP3 Assay (LPS priming, ATP stimulation, cytokine measurement); assay type: cell-based; details: for pIC50: read-out: PBMC IC50
human NLRP3 [2] = molecular target: T1, human NLRP3; assay: Scintillation Proximity (SPA) NLRP3 Assay: displacement of 3H-MCC950; assay type: binding
human NLRP3 [3] = molecular target: T1, human NLRP3; assay: Human Whole Blood (hWB) NLRP3 Assay (LPS/ATP, IL-1β); assay type: cell-based
[4] = human PBMC, LPS priming, ATP stimulation
[5] = displacement of 3H-MCC950, read-out: SPA IC50
[6] = human whole blood, LPS/ATP, IL-1β, read-out: hWB IC50
[7] = hWB IC50, human whole blood, LPS/ATP, IL-1β

T1 sequence (Q96P20 whole entry): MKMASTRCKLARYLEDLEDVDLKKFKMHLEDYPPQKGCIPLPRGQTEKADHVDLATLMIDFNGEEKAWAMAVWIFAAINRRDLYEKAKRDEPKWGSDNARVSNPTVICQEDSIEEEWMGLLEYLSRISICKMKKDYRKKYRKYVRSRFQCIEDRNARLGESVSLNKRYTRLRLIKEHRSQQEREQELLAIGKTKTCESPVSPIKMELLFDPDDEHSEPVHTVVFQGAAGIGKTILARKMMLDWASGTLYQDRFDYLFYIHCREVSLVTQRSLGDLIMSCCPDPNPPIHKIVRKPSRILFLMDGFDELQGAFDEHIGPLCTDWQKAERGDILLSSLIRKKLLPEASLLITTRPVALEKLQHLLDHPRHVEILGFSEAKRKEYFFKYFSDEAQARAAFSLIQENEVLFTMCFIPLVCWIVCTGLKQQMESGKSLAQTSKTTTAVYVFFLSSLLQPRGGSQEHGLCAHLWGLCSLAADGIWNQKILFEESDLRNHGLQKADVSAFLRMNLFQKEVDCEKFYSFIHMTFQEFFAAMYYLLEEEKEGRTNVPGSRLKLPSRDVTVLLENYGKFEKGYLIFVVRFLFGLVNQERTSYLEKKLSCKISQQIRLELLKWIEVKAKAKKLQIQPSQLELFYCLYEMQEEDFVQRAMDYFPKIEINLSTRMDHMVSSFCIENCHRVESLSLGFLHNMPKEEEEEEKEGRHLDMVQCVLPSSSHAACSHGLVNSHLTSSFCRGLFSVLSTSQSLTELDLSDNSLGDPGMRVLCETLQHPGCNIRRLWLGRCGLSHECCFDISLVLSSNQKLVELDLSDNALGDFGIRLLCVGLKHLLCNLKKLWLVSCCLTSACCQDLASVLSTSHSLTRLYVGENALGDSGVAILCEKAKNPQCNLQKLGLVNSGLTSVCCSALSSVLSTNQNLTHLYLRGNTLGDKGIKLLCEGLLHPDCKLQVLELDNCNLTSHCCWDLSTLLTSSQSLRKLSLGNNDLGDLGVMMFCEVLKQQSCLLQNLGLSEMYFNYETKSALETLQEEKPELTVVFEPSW

Row | pIC50 (human NLRP3 [1]; [4]) | pIC50 (human NLRP3 [2]; [5]) | SMILES | further results
1 | > 8.00 | > 6.00 | C[C@H]1CC[C@@H](NC(=O)C2(c3ccc(Cl)cc3O)CC2)CN(c2nnn[nH]2)C1 (single isomer, unassigned) [90A*] | pIC50 (human NLRP3 [3]; [6]): < 5.52
2 | 7.00 to 8.00 | > 6.00 | C[C@H]1C[C@@H](NC(=O)C2(c3ccc(OC(F)F)cc3O)CC2)CN(c2nnn[nH]2)C1 [Compound 19A, 1-(4-(difluoromethoxy)-2-hydroxyphenyl)-N-((3R,5S)-5-methyl-1-(1H-tetrazol-5-yl)piperidin-3-yl)cyclopropane-1-carboxamide] | pIC50 (human NLRP3 [3]; [6]): > 6.00
3 | 6.30 to 7.00 | 5.00 to 6.00 | O=C(N[C@@H]1CCCN(c2nnn[nH]2)C1)C1(c2ccc(Cl)cc2O)CC1 [Compound 15A, (R)-N-(1-(1H-tetrazol-5-yl)piperidin-3-yl)-1-(4-chloro-2-hydroxyphenyl)cyclopropane-1-carboxamide] | pIC50 (human NLRP3 [1]): 6.70; fold increase in potency as measured by PBMC IC50 (human NLRP3 [1]; relative to Compound 10A): > 10 fold; pIC50 (human NLRP3 [2]; read-out: SPA IC50): 5.74; fold increase in binding activity (SPA IC50) (human NLRP3 [2]; relative to Compound 10A): > 5 fold; pIC50 (human NLRP3 [3]; [6]): > 6.00; pIC50 (human NLRP3 [3]; read-out: hWB IC50): 6.27; fold increase in potency as measured by hWB IC50 (human NLRP3 [3]; relative to Compound 10A): > 13 fold
4 | – | – | CN(C(=O)C1(c2ccc(Cl)cc2)CC1)c1cccc(-c2nnn[nH]2)c1 [Comparative Example B2, N-(3-(1H-tetrazol-5-yl)phenyl)-1-(4-chlorophenyl)-N-methylcyclopropane-1-carboxamide, reference compound] | pIC50 (human NLRP3 [2]; read-out: SPA IC50): 3.70; pIC50 (human NLRP3 [3]; read-out: hWB IC50): < 4.30
5 | – | > 6.00 | O=C(N[C@@H]1CCCCN(c2nnn[nH]2)C1)C1(c2ccc(Cl)cc2O)CC1 [Compound 52A, (R)-N-(1-(1H-tetrazol-5-yl)azepan-3-yl)-1-(4-chloro-2-hydroxyphenyl)cyclopropane-1-carboxamide] | pIC50 (human NLRP3 [2]; read-out: SPA IC50): 7.10; pIC50 (human NLRP3 [3]; [6]): > 6.00; pIC50 (human NLRP3 [3]; read-out: hWB IC50): 6.59
6 | > 8.00 | > 6.00 | CC1(C)C[C@@H](NC(=O)C2(c3ccc(Cl)cc3O)CC2)CN(c2nnn[nH]2)C1 (single isomer, unassigned) [42A*] | pIC50 (human NLRP3 [1]): 8.24; pIC50 (human NLRP3 [2]; read-out: SPA IC50): 7.33
7 | > 8.00 | – | Cc1ccc(C2(C(=O)N[C@@H]3C[C@H](C)CCN(c4nnn[nH]4)C3)CC2)c(O)c1F (single isomer, unassigned) [22A*, 1-(3-fluoro-2-hydroxy-4-methylphenyl)-N-(5-methyl-1-(1H-tetrazol-5-yl)azepan-3-yl)cyclopropane-1-carboxamide] | pIC50 (human NLRP3 [3]; [6]): > 6.00
8 | 7.00 to 8.00 | > 6.00 | C[C@@H]1CCN(c2nnn[nH]2)C[C@H](NC(=O)C2(c3ccc(OC(F)F)cc3F)CC2)C1 (single isomer, unassigned) [3A*] | –
9 | 6.30 to 7.00 | > 6.00 | C[C@H]1CCN(c2nnn[nH]2)C[C@@H](NC(=O)C2(c3ccc(Cl)c(F)c3O)CC2)C1 (single isomer, unassigned) [18D*, 1-(4-chloro-3-fluoro-2-hydroxyphenyl)-N-(5-methyl-1-(1H-tetrazol-5-yl)azepan-3-yl)cyclopropane-1-carboxamide] | –
10 | – | – | O=C(Nc1cccc(-c2ccccc2)c1)C1(c2ccc(Cl)cc2)CC1 [Comparative Example D, N-([1,1′-biphenyl]-3-yl)-1-(4-chlorophenyl)cyclopropane-1-carboxamide, reference compound] | pIC50 (human NLRP3 [2]; read-out: SPA IC50): 3.49; pIC50 (human NLRP3 [3]; read-out: hWB IC50): < 4.30
11 | – | > 6.00 | C[C@H]1C[C@@H](NC(=O)C2(c3ccc(C(F)F)cc3O)CC2)CN(c2nnn[nH]2)C1 [Compound 48A, 1-(4-(difluoromethyl)-2-hydroxyphenyl)-N-((3R,5S)-5-methyl-1-(1H-tetrazol-5-yl)piperidin-3-yl)cyclopropane-1-carboxamide] | pIC50 (human NLRP3 [3]; [6]): > 6.00
12 | – | – | O=C(N[C@@H]1C[C@@H](C(F)(F)F)[C@@H]2CC[C@H]1N2c1nnn[nH]1)C1(c2ccc(Cl)cc2)CC1 (single isomer, unassigned) [103A*] | pIC50 (human NLRP3 [2]; SPA IC50, displacement of 3H-MCC950): > 6.00; pIC50 (human NLRP3 [3]; [7]): > 6.00
13 | 7.00 to 8.00 | > 6.00 | C[C@H]1CC[C@H](NC(=O)C2(c3ccc(Cl)cc3O)CC2)CN(c2nnn[nH]2)C1 (single isomer, unassigned) [90B*] | –
14 | > 8.00 | > 6.00 | C[C@@H]1CCN(c2nnn[nH]2)C[C@H](NC(=O)C2(c3ccc(C4CC4)c(F)c3O)CC2)C1 (single isomer, unassigned) [32A*, 1-(4-cyclopropyl-3-fluoro-2-hydroxyphenyl)-N-(5-methyl-1-(1H-tetrazol-5-yl)azepan-3-yl)cyclopropane-1-carboxamide] | –
15 | – | – | O=C(N[C@@H]1CCN(c2nnn[nH]2)C1)C1(c2ccc(Cl)cc2)CC1 (single isomer, unassigned) [Comparative Example A*, reference compound] | pIC50 (human NLRP3 [2]; read-out: SPA IC50): 3.38; pIC50 (human NLRP3 [3]; read-out: hWB IC50): < 4.30
16 | > 8.00 | > 6.00 | C[C@@H]1CCN(c2nnn[nH]2)C[C@H](NC(=O)C2(c3ccc(C(F)(F)F)cc3F)CC2)C1 (single isomer, unassigned) [68A*] | –
17 | 7.00 to 8.00 | > 6.00 | C[C@H]1CCN(c2nnn[nH]2)C[C@@H](NC(=O)C2(c3ccc(OC(F)F)cc3O)CC2)C1 (single isomer, unassigned) [70D*] | –
18 | 7.00 to 8.00 | > 6.00 | C[C@@H]1CCN(c2nnn[nH]2)C[C@H](NC(=O)C2(c3ccc(Cl)cc3Cl)CC2)C1 (single isomer, unassigned) [55A*] | –
19 | 7.00 to 8.00 | > 6.00 | C[C@@H]1CCN(c2nnn[nH]2)C[C@@H](NC(=O)C2(c3ccc(C(F)F)cc3O)CC2)C1 (single isomer, unassigned) [30B*, 1-(4-(difluoromethyl)-2-hydroxyphenyl)-N-(5-methyl-1-(1H-tetrazol-5-yl)azepan-3-yl)cyclopropane-1-carboxamide] | –
20 | 7.00 to 8.00 | > 6.00 | C[C@@H]1CCN(c2nnn[nH]2)C[C@H](NC(=O)C2(c3ccc(C(F)(F)F)c(OC(F)F)c3)CC2)C1 (single isomer, unassigned) [54A*] | –
21 | 7.00 to 8.00 | > 6.00 | C[C@@H]1CCN(c2nnn[nH]2)C[C@@H](NC(=O)C2(c3ccc(C(F)(F)F)c(F)c3O)CC2)C1 (single isomer, unassigned) [31B*, 1-(3-fluoro-2-hydroxy-4-(trifluoromethyl)phenyl)-N-(5-methyl-1-(1H-tetrazol-5-yl)azepan-3-yl)cyclopropane-1-carboxamide] | –
22 | 6.30 to 7.00 | 4.30 to 5.00 | C[C@H]1CCN(c2nnn[nH]2)C[C@H](NC(=O)C2(c3ccc(Cl)c(F)c3O)CC2)C1 (single isomer, unassigned) [18C*, 1-(4-chloro-3-fluoro-2-hydroxyphenyl)-N-(5-methyl-1-(1H-tetrazol-5-yl)azepan-3-yl)cyclopropane-1-carboxamide] | –
23 | 7.00 to 8.00 | > 6.00 | C[C@@H]1CCN(c2nnn[nH]2)C[C@H](NC(=O)C2(c3ccc(SC(F)(F)F)cc3)CC2)C1 (single isomer, unassigned) [69A*] | –

Row | SMILES | pIC50 (human NLRP3 [1]; [4]) | pIC50 (human NLRP3 [2]; [5]) | further results
24 | C[C@@H]1C[C@@H](NC(=O)C2(c3ccc(OC(F)F)cc3F)CC2)[C@H]2CC[C@@H]1N2c1nnn[nH]1 (stereo in doubt) [Compound 101A, 1-(4-(difluoromethoxy)-2-fluorophenyl)-N-(4-methyl-8-(1H-tetrazol-5-yl)-8-azabicyclo[3.2.1]octan-2-yl)cyclopropane-1-carboxamide] | – | > 6.00 | pIC50 (human NLRP3 [3]; [7]): > 6.00
25 | O=C(N[C@@H]1CC[C@H]2CC[C@@H]1N2c1nnn[nH]1)C1(c2ccc(Cl)c(F)c2O)CC1 [76C*, N-((1S,2R,5S)-8-(1H-tetrazol-5-yl)-8-azabicyclo[3.2.1]octan-2-yl)-1-(4-chloro-3-fluoro-2-hydroxyphenyl)cyclopropane-1-carboxamide] | 6.30 to 7.00 | > 6.00 | pIC50 (human NLRP3 [3]; [6]): 5.70 to 6.00
26 | COc1cc(F)c(C2(C(=O)N[C@@H]3C[C@@H](C)[C@@H]4CC[C@H]3N4c3nnn[nH]3)CC2)c(F)c1 (single isomer, unassigned) [102A*] | – | > 6.00 | pIC50 (human NLRP3 [3]; [7]): > 6.00
27 | C[C@@H]1CC(NC(=O)C2(c3ccc(OC(F)F)cc3O)CC2)[C@H]2CC[C@@H]1N2c1nnn[nH]1 (single isomer, unassigned) [43A*] | – | > 6.00 | pIC50 (human NLRP3 [3]; [7]): > 6.00
28 | C[C@H]1C[C@@H]2CC[C@H]([C@H](NC(=O)C3(c4ccc(C(F)(F)F)cc4)CC3)C1)N2c1nnn[nH]1 [104A*, N-((1R,2R,4R,6S)-4-methyl-9-(1H-tetrazol-5-yl)-9-azabicyclo[4.2.1]nonan-2-yl)-1-(4-(trifluoromethyl)phenyl)cyclopropane-1-carboxamide] | – | > 6.00 | pIC50 (human NLRP3 [3]; [7]): 5.52 to 5.70
29 | C[C@@H]1C[C@H](NC(=O)C2(c3ccc(OC(F)F)cc3O)CC2)[C@H]2CC[C@@H]1N2c1nnn[nH]1 [43B*, N-((1R,2S,4R,5S)-4-methy1-8-(1H-tetrazol-5-yl)-8-azabicyclo[3.2.1]octan-2-yl)-1-(4-(difluoromethoxy)-2-hydroxyphenyl)cyclopropane-1-carboxamide] | – | > 6.00 | pIC50 (human NLRP3 [3]; [6]): < 5.52
30 | C[C@H]1C[C@@H](NC(=O)C2(c3ccc(OC(F)F)cc3)CC2)[C@H]2CC[C@@H]1N2c1nnn[nH]1 (single isomer, unassigned) [35E*] | – | 5.00 to 6.00 | pIC50 (human NLRP3 [3]; [6]): < 5.52
31 | C[C@@H]1C[C@@H](NC(=O)C2(c3ccc(C4CC4(F)F)cc3)CC2)[C@H]2CC[C@@H]1N2c1nnn[nH]1 (single isomer, unassigned) [37A*] | – | > 6.00 | pIC50 (human NLRP3 [3]; [7]): 5.70 to 6.00
32 | C[C@@H]1C[C@H]2CC[C@@H]([C@H](NC(=O)C3(c4ccc(C(F)(F)F)cc4)CC3)C1)N2c1nnn[nH]1 [104C*, N-((1S,2R,4S,6R)-4-methyl-9-(1H-tetrazol-5-yl)-9-azabicyclo[4.2.1]nonan-2-yl)-1-(4-(trifluoromethyl)phenyl)cyclopropane-1-carboxamide] | – | > 6.00 | pIC50 (human NLRP3 [3]; [7]): > 6.00
